Bounds are passed on as bounds.

Assay [1] has as its system MCF7. Description: cells. The conditions noted are these: Homo sapiens, MCF7, 72 h.
Description: Antiproliferative activity against human MCF7 cells measured after 72 hrs by MTT assay
The subject of assay [2] is PC-3. Description: Antiproliferative activity against human PC-3 cells measured after 72 hrs by MTT assay. Format: functional, cell-based. The conditions noted are these: PC-3, 72 h.
The test system of assay [3] is ECa-109 cell line. Description: Antiproliferative activity against human Eca-109 cells measured after 72 hrs by MTT assay. Format: functional, cell-based. The note with it: ECa-109, 72 h. (In general: Formazan colour is commonly taken as a measure of viable cells.)
Assay [4] has as its system MGC-803. Description: cells. The conditions noted are these: Homo sapiens, MGC-803, 72 h.
Description: Antiproliferative activity against human MGC-803 cells measured after 72 hrs by MTT assay

The IC50 is the point on the concentration scale where inhibition reaches its midpoint. In the case of `COc1cccc(Nc2nc(SCC(=O)N3CCN(CCOc4no[n+]([O-])c4S(=O)(=O)c4ccccc4)CC3)nc(-c3ccccc3)c2C#N)c1`, the 50% inhibitory concentration (IC50) in assay [1] amounted to 2.09 µM; in assay [2], 3380 nM; in assay [3] it was 4.6 µM; in assay [4] it was 1540 nM.
Take `N#Cc1c(Nc2ccc(Br)cc2)nc(SCC(=O)N2CCN(CCOc3no[n+]([O-])c3S(=O)(=O)c3ccccc3)CC2)nc1-c1ccccc1`: the IC50 in assay [1] stood at 2.31 µM; in assay [2], 1940 nM; in assay [3] it was 3.32 µM; in assay [4], 1390 nM.
With `N#Cc1c(Nc2ccccc2)nc(SCC(=O)N2CCN(CCOc3no[n+]([O-])c3S(=O)(=O)c3ccccc3)CC2)nc1-c1ccccc1`, the IC50 in assay [1] stood at 2.96 µM; in assay [2], 1920 nM; in assay [3], 2.27 µM; in assay [4], 2000 nM.
With `Cc1cccc(Nc2nc(SCC(=O)N3CCN(CCOc4no[n+]([O-])c4S(=O)(=O)c4ccccc4)CC3)nc(-c3ccccc3)c2C#N)c1`, the IC50 in assay [1] came out at 2.12 µM; in assay [2] it was 2100 nM; in assay [3], 2.38 µM; in assay [4], 1250 nM.
The corresponding values for `N#Cc1c(Nc2ccccc2)nc(SCC(=O)OCCCCCCOc2no[n+]([O-])c2S(=O)(=O)c2ccccc2)nc1-c1ccccc1` are greater than 50 µM, 13000 nM, greater than 50 µM and greater than 50000 nM.
Consider `N#Cc1c(Nc2ccccc2)nc(SCC(=O)NCCCCCOc2no[n+]([O-])c2S(=O)(=O)c2ccccc2)nc1-c1ccccc1`, for which the IC50 in assay [1] was determined as 4.02 µM; in assay [2], 2300 nM; in assay [3], 4.61 µM; in assay [4], 2210 nM.
Regarding `N#Cc1c(-c2ccccc2)nc(SCC(=O)N2CCN(CCOc3no[n+]([O-])c3S(=O)(=O)c3ccccc3)CC2)nc1N1CCSCC1`, the IC50 is 6.81 µM in assay [1], 5050 nM in assay [2], 6.68 µM in assay [3] and 4610 nM in assay [4].
The corresponding values for `CCOc1ccc(Nc2nc(SCC(=O)N3CCN(CCOc4no[n+]([O-])c4S(=O)(=O)c4ccccc4)CC3)nc(-c3ccccc3)c2C#N)cc1` are 5.43 µM, 2840 nM, 3.57 µM and 2950 nM.
For `CCCc1ccccc1Nc1nc(SCC(=O)N2CCN(CCOc3no[n+]([O-])c3S(=O)(=O)c3ccccc3)CC2)nc(-c2ccccc2)c1C#N`, in that order: 2.74 µM, 2150 nM, 4.61 µM and 2040 nM.
As to `CN1CCN(c2nc(SCC(=O)N3CCN(CCOc4no[n+]([O-])c4S(=O)(=O)c4ccccc4)CC3)nc(-c3ccccc3)c2C#N)CC1`, the IC50 in assay [1] is 2.69 µM; in assay [2], 1570 nM; in assay [3], 2.34 µM; in assay [4], 1460 nM.
`CCN1CCN(c2nc(SCC(=O)N3CCN(CCOc4no[n+]([O-])c4S(=O)(=O)c4ccccc4)CC3)nc(-c3ccccc3)c2C#N)CC1`: the IC50 in assay [1] was determined as 2.24 µM; in assay [2], 1420 nM; in assay [3], 2.27 µM; in assay [4], 1240 nM.
The corresponding values for `N#Cc1c(Nc2ccccc2)nc(SCC(=O)NCCOc2no[n+]([O-])c2S(=O)(=O)c2ccccc2)nc1-c1ccccc1` are 4.16 µM, 2370 nM, 6.35 µM and 2580 nM.
For `N#Cc1c(Nc2cccc(Cl)c2)nc(SCC(=O)N2CCN(CCOc3no[n+]([O-])c3S(=O)(=O)c3ccccc3)CC2)nc1-c1ccccc1`, the IC50 came out at 2.51 µM in assay [1], 1430 nM in assay [2], 2.31 µM in assay [3] and 1190 nM in assay [4].
With `CCOc1ccccc1Nc1nc(SCC(=O)N2CCN(CCOc3no[n+]([O-])c3S(=O)(=O)c3ccccc3)CC2)nc(-c2ccccc2)c1C#N`, the IC50 in assay [1] stood at 3.61 µM; in assay [2], 2050 nM; in assay [3], 3.75 µM; in assay [4], 1460 nM.
Take `Cc1ccc(Nc2nc(SCC(=O)N3CCN(CCOc4no[n+]([O-])c4S(=O)(=O)c4ccccc4)CC3)nc(-c3ccccc3)c2C#N)cc1`: the IC50 in assay [1] stood at 2.14 µM; in assay [2] it was 2370 nM; in assay [3], 2.94 µM; in assay [4], 1360 nM.
With `Cc1ccccc1Nc1nc(SCC(=O)N2CCN(CCOc3no[n+]([O-])c3S(=O)(=O)c3ccccc3)CC2)nc(-c2ccccc2)c1C#N`, the half-inhibitory concentration (IC50) stood at 2.33 µM in assay [1], 2250 nM in assay [2], 2.48 µM in assay [3] and 1590 nM in assay [4].
With `N#Cc1c(Nc2cccc(F)c2)nc(SCC(=O)N2CCN(CCOc3no[n+]([O-])c3S(=O)(=O)c3ccccc3)CC2)nc1-c1ccccc1`, the IC50 in assay [1] turned out to be 2.72 µM; in assay [2], 1630 nM; in assay [3], 4.54 µM; in assay [4], 1080 nM.
The corresponding values for `N#Cc1c(Nc2ccccc2)nc(SCC(=O)OCCCOc2no[n+]([O-])c2S(=O)(=O)c2ccccc2)nc1-c1ccccc1` are 7.66 µM, 2320 nM, 8.58 µM and 7310 nM.
In the case of `N#Cc1c(Nc2ccccc2)nc(SCC(=O)OCCCCCOc2no[n+]([O-])c2S(=O)(=O)c2ccccc2)nc1-c1ccccc1`, the IC50 is 5.94 µM in assay [1], 2280 nM in assay [2], greater than 50 µM in assay [3] and 3800 nM in assay [4].
Turning to `CCCc1ccc(Nc2nc(SCC(=O)N3CCN(CCOc4no[n+]([O-])c4S(=O)(=O)c4ccccc4)CC3)nc(-c3ccccc3)c2C#N)cc1`, the IC50 in assay [1] came to 2.07 µM; in assay [2] it was 1160 nM; in assay [3] it was 5.42 µM; in assay [4] it was 1090 nM.
For `COc1ccccc1Nc1nc(SCC(=O)N2CCN(CCOc3no[n+]([O-])c3S(=O)(=O)c3ccccc3)CC2)nc(-c2ccccc2)c1C#N`, the IC50 was found to be 3.3 µM in assay [1], 1700 nM in assay [2], 4.7 µM in assay [3] and 1460 nM in assay [4].
With `N#Cc1c(Nc2ccc(Cl)c(Cl)c2)nc(SCC(=O)N2CCN(CCOc3no[n+]([O-])c3S(=O)(=O)c3ccccc3)CC2)nc1-c1ccccc1`, the IC50 in assay [1] was 3.35 µM; in assay [2], 1850 nM; in assay [3], 3.92 µM; in assay [4], 1880 nM.
In the case of `CCCc1cccc(Nc2nc(SCC(=O)N3CCN(CCOc4no[n+]([O-])c4S(=O)(=O)c4ccccc4)CC3)nc(-c3ccccc3)c2C#N)c1`, the half-inhibitory concentration (IC50) is 3.03 µM in assay [1], 2920 nM in assay [2], 8.05 µM in assay [3] and 1890 nM in assay [4].
As for `N#Cc1c(Nc2ccc(C(F)(F)F)cc2)nc(SCC(=O)N2CCN(CCOc3no[n+]([O-])c3S(=O)(=O)c3ccccc3)CC2)nc1-c1ccccc1`, the IC50 is 2.23 µM in assay [1], 3520 nM in assay [2], 4.64 µM in assay [3] and 1560 nM in assay [4].
On to `N#Cc1c(Nc2cccc(Br)c2)nc(SCC(=O)N2CCN(CCOc3no[n+]([O-])c3S(=O)(=O)c3ccccc3)CC2)nc1-c1ccccc1`, for which the IC50 in assay [1] came to 3.16 µM; in assay [2] it was 1550 nM; in assay [3], 3.45 µM; in assay [4], 1330 nM.
`O=S(=O)(c1ccccc1)c1c(OCCN2CCNCC2)no[n+]1[O-]` showed an IC50 in assay [4] of 6740 nM.
As for `CCc1cccc(Nc2nc(SCC(=O)N3CCN(CCOc4no[n+]([O-])c4S(=O)(=O)c4ccccc4)CC3)nc(-c3ccccc3)c2C#N)c1`, the IC50 in assay [1] came out at 2.87 µM; in assay [2], 2400 nM; in assay [3], 4.1 µM; in assay [4], 1110 nM.
For the compound `N#Cc1c(Nc2ccccc2)nc(SCC(=O)N2CCC(Oc3no[n+]([O-])c3S(=O)(=O)c3ccccc3)CC2)nc1-c1ccccc1`, the IC50 in assay [1] is 6.02 µM; in assay [2], 2010 nM; in assay [3], 7.03 µM; in assay [4] it was 2570 nM.
On to `C=CC(=O)Nc1cccc(Nc2nc(SCC(=O)N3CCN(CCOc4no[n+]([O-])c4S(=O)(=O)c4ccccc4)CC3)nc(-c3ccccc3)c2C#N)c1`, for which the IC50 came to 4.22 µM in assay [1], 1880 nM in assay [2], 3.66 µM in assay [3] and 1410 nM in assay [4].
Regarding `N#Cc1c(Nc2cccc(C(F)(F)F)c2)nc(SCC(=O)N2CCN(CCOc3no[n+]([O-])c3S(=O)(=O)c3ccccc3)CC2)nc1-c1ccccc1`, the IC50 in assay [1] turned out to be 2.21 µM; in assay [2], 2190 nM; in assay [3], 2.89 µM; in assay [4], 1260 nM.
For `N#Cc1c(Nc2ccccc2)nc(SCC(=O)OCC#CCOc2no[n+]([O-])c2S(=O)(=O)c2ccccc2)nc1-c1ccccc1`, the IC50 was found to be 10.4 µM in assay [1], 2060 nM in assay [2], 3.27 µM in assay [3] and 2670 nM in assay [4].
For `N#Cc1c(Nc2ccccc2)nc(SCC(=O)OCCc2ccc(Oc3no[n+]([O-])c3S(=O)(=O)c3ccccc3)cc2)nc1-c1ccccc1`, in that order: greater than 50 µM, 2100 nM, 23.1 µM and 18400 nM.
Consider `N#Cc1c(Nc2ccccc2C(F)(F)F)nc(SCC(=O)N2CCN(CCOc3no[n+]([O-])c3S(=O)(=O)c3ccccc3)CC2)nc1-c1ccccc1`, for which the IC50 in assay [1] was determined as 2.26 µM; in assay [2], 3020 nM; in assay [3] it was 3.85 µM; in assay [4], 1670 nM.
`N#Cc1c(Nc2ccccc2)nc(SCC(=O)NCCCOc2no[n+]([O-])c2S(=O)(=O)c2ccccc2)nc1-c1ccccc1`: the IC50 was found to be 6.03 µM in assay [1], 2280 nM in assay [2], 5.73 µM in assay [3] and 2950 nM in assay [4].
The corresponding values for `N#Cc1c(Nc2ccccc2)nc(SCC(=O)OCCCCOc2no[n+]([O-])c2S(=O)(=O)c2ccccc2)nc1-c1ccccc1` are 5.08 µM, 2450 nM, greater than 50 µM and 7000 nM.
As to `N#Cc1c(Nc2ccccc2)nc(SCC(=O)N2CCC(Oc3no[n+]([O-])c3S(=O)(=O)c3ccccc3)C2)nc1-c1ccccc1` (stereo unspecified), the concentration for half-maximal inhibition (IC50) in assay [1] came out at 3.55 µM; in assay [2], 2180 nM; in assay [3] it was 4.39 µM; in assay [4] it was 3560 nM.

The record behind these values is ChEMBL document CHEMBL5365407, “Design, synthesis and biological evaluation of nitric oxide-releasing 5-cyano-6-phenyl-2, 4-disubstituted pyrimidine derivatives” (Bioorg Med Chem Lett, 2023).
